Experimental data taken from the supplement of paper PMC10307832.

Tests used:
Experiment in all cases: relative viability (nuclei count vs DMSO), 5 days (fraction); higher = more cells survive
Linifanib + Trametinib = compound: Cc1ccc(F)c(NC(=O)Nc2ccc(-c3cccc4[nH]nc(N)c34)cc2)c1 [Linifanib] + CC(=O)Nc1cccc(-n2c(=O)n(C3CC3)c(=O)c3c(Nc4ccc(I)cc4F)n(C)c(=O)c(C)c32)c1 [Trametinib] (partner 0.02 µM)
In short: (§1)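 Values are medians from duplicate plates. Each reflects relative viability, defined as the nuclei count of treated wells over that of vehicle wells. Lung cancer cell lines in 1536-well plates were pin-tool dosed one day after seeding with one drug alone or with a fixed anchor-drug dose plus five library-drug doses (not always all listed) in √10 steps, then fixed, stained and imaged at 4× after 5 days.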

Linifanib + Foretinib = compound: Cc1ccc(F)c(NC(=O)Nc2ccc(-c3cccc4[nH]nc(N)c34)cc2)c1 [Linifanib] + COc1cc2c(Oc3ccc(NC(=O)C4(C(=O)Nc5ccc(F)cc5)CC4)cc3F)ccnc2cc1OCCCN1CCOCC1 [Foretinib] (partner 0.25 µM)
In short: as §1

Linifanib + Crizotinib = compound: Cc1ccc(F)c(NC(=O)Nc2ccc(-c3cccc4[nH]nc(N)c34)cc2)c1 [Linifanib] + C[C@@H](Oc1cc(-c2cnn(C3CCNCC3)c2)cnc1N)c1c(Cl)ccc(F)c1Cl [Crizotinib] (partner 1 µM)
In short: as §1

Linifanib + Linsitinib = compound: Cc1ccc(F)c(NC(=O)Nc2ccc(-c3cccc4[nH]nc(N)c34)cc2)c1 [Linifanib] + C[C@]1(O)C[C@@H](c2nc(-c3ccc4ccc(-c5ccccc5)nc4c3)c3c(N)nccn32)C1 [Linsitinib] (partner 1 µM)
In short: as §1

Linifanib + Phenformin = compound: Cc1ccc(F)c(NC(=O)Nc2ccc(-c3cccc4[nH]nc(N)c34)cc2)c1 [Linifanib] + N=C(N)NC(=N)NCCc1ccccc1 [Phenformin] (partner 250 µM)
In short: as §1

Linifanib + Pemetrexed = compound: Cc1ccc(F)c(NC(=O)Nc2ccc(-c3cccc4[nH]nc(N)c34)cc2)c1 [Linifanib] + Nc1nc2[nH]cc(CCc3ccc(C(=O)N[C@@H](CCC(=O)O)C(=O)O)cc3)c2c(=O)[nH]1 [Pemetrexed] (partner 0.2 µM)
In short: as §1

Cell Line | relative viability (Linifanib + Trametinib; first compound 0.03162 µM) | relative viability (Linifanib + Trametinib; first compound 0.1 µM) | relative viability (Linifanib + Trametinib; first compound 0.3162 µM) | relative viability (Linifanib + Foretinib; first compound 0.03162 µM) | relative viability (Linifanib + Foretinib; first compound 0.1 µM) | relative viability (Linifanib + Foretinib; first compound 0.3162 µM) | relative viability (Linifanib + Crizotinib; first compound 0.03162 µM) | relative viability (Linifanib + Crizotinib; first compound 0.1 µM) | relative viability (Linifanib + Crizotinib; first compound 0.3162 µM) | relative viability (Linifanib + Linsitinib; first compound 0.03162 µM) | relative viability (Linifanib + Linsitinib; first compound 0.1 µM) | relative viability (Linifanib + Linsitinib; first compound 0.3162 µM) | relative viability (Linifanib + Phenformin; first compound 0.03162 µM) | relative viability (Linifanib + Phenformin; first compound 0.1 µM) | relative viability (Linifanib + Phenformin; first compound 0.3162 µM) | relative viability (Linifanib + Pemetrexed; first compound 0.03162 µM) | relative viability (Linifanib + Pemetrexed; first compound 0.1 µM) | relative viability (Linifanib + Pemetrexed; first compound 0.3162 µM)
201T | 0.746 | 0.736 | 0.758 | 0.968 | 1.22 | 1.1 | 0.999 | 1.02 | 1.04 | 1.01 | 1.02 | 1.05 | 0.503 | 0.473 | 0.422 | 0.317 | 0.309 | 0.317
A-427 | 0.755 | 0.806 | 0.836 | 1.02 | 1.34 | 1.02 | 0.964 | 0.983 | 0.83 | 1.1 | 1.11 | 1.08 | 0.346 | 0.428 | 0.294 | 0.96 | 0.992 | 0.945
ABC-1 | – | – | – | 1.02 | 1.08 | 0.921 | 1.28 | 1.27 | 0.996 | 0.825 | 1.03 | 0.788 | 0.271 | 0.234 | 0.24 | – | – | –
BEN | 0.929 | 0.946 | 1.1 | 0.718 | 0.774 | 0.608 | 0.897 | 0.924 | 0.791 | 0.842 | 0.896 | 0.83 | 0.252 | 0.245 | 0.243 | 0.716 | 0.866 | 0.853
CAL-12T | 0.338 | 0.463 | 0.357 | 1.14 | 1.21 | 1.14 | 0.835 | 0.692 | 0.698 | 0.905 | 0.722 | 0.755 | 0.636 | 0.617 | 0.458 | 1.2 | 1.27 | 1.18
COR-L23 | 0.666 | 0.689 | 0.578 | 0.952 | 0.951 | 0.959 | 0.716 | 0.657 | 0.531 | 0.933 | 1.01 | 0.815 | 0.464 | 0.431 | 0.399 | 0.197 | 0.19 | 0.195
COR-L 105 | 0.444 | 0.451 | 0.45 | 0.968 | 1.08 | 0.919 | 0.796 | 0.941 | 0.797 | 0.87 | 0.978 | 0.715 | 0.577 | 0.548 | 0.465 | 1.12 | 1.02 | 1.07
ChaGo-K-1 | 0.904 | 0.942 | 0.86 | 1.09 | 0.935 | 0.951 | 1.13 | 1.14 | 1.08 | – | – | – | 0.488 | 0.581 | 0.478 | 0.255 | 0.262 | 0.238
EKVX | 0.381 | 0.411 | 0.392 | 0.787 | 0.886 | 0.686 | 0.939 | 1.01 | 0.875 | 1.11 | 1.03 | 0.868 | 0.241 | 0.25 | 0.194 | 0.388 | 0.413 | 0.399
